Experimental data as given in patent publication US5633382A, “Histamine H3 -receptor antagonists and therapeutic uses thereof” (The University of Toledo, priority 1994, dated 1997).

How the values were obtained:
[1] = Behavioral effects (sleeping) after i.p. injection in mice; assay type: in vivo, mouse
Glycine (Inhibitory) = assay: NOVASCREEN receptor selectivity assay; assay type: binding; details: 10^-5 M
Excerpt: (§1) represent the average of duplicate tubes at each of the concentrations

[2] = tested on: Protein Kinase C (Phorbol Ester); assay: NOVASCREEN receptor selectivity assay; assay type: binding; details: 10^-5 M
Excerpt: as §1

Adenosine = assay: NOVASCREEN receptor selectivity assay; assay type: binding; details: 10^-5 M
Excerpt: as §1

Kainate = assay: NOVASCREEN receptor selectivity assay; assay type: binding; details: 10^-5 M
Excerpt: as §1

CCK Peripheral = assay: NOVASCREEN receptor selectivity assay; assay type: binding; details: 10^-5 M
Excerpt: as §1

MK-801 = assay: NOVASCREEN receptor selectivity assay; assay type: binding; details: 10^-5 M
Excerpt: as §1

Potassium channel = assay: NOVASCREEN receptor selectivity assay; assay type: binding; details: 10^-5 M
Excerpt: as §1

Angiotensin = assay: NOVASCREEN receptor selectivity assay; assay type: binding; details: 10^-5 M
Excerpt: as §1

[3] = tested on: Quisqualate (Excitatory Amino Acids); assay: NOVASCREEN receptor selectivity assay; assay type: binding; details: 10^-5 M
Excerpt: as §1

NPY = assay: NOVASCREEN receptor selectivity assay; assay type: binding; details: 10^-5 M
Excerpt: as §1

Serotonin 1 = assay: NOVASCREEN receptor selectivity assay; assay type: binding; details: 10^-5 M
Excerpt: as §1

Bombesin = assay: NOVASCREEN receptor selectivity assay; assay type: binding; details: 10^-5 M
Excerpt: as §1

Dopamine 1 = assay: NOVASCREEN receptor selectivity assay; assay type: binding; details: 10^-5 M
Excerpt: as §1

Neurotensin = assay: NOVASCREEN receptor selectivity assay; assay type: binding; details: 10^-5 M
Excerpt: as §1

ANF (rat) = assay: NOVASCREEN receptor selectivity assay; assay type: binding; details: 10^-5 M
Excerpt: as §1

Inositol Triphosphate = assay: NOVASCREEN receptor selectivity assay; assay type: binding; details: 10^-5 M
Excerpt: as §1

Substance K = assay: NOVASCREEN receptor selectivity assay; assay type: binding; details: 10^-5 M
Excerpt: as §1

PCP = assay: NOVASCREEN receptor selectivity assay; assay type: binding; details: 10^-5 M
Excerpt: as §1

Glycine (excitatory) = assay: NOVASCREEN receptor selectivity assay; assay type: binding; details: 10^-5 M
Excerpt: as §1

Substance P = assay: NOVASCREEN receptor selectivity assay; assay type: binding; details: 10^-5 M
Excerpt: as §1

VIP = assay: NOVASCREEN receptor selectivity assay; assay type: binding; details: 10^-5 M
Excerpt: as §1

Arg-Vasopressin V1 = assay: NOVASCREEN receptor selectivity assay; assay type: binding; details: 10^-5 M
Excerpt: as §1

Somatostatin = assay: NOVASCREEN receptor selectivity assay; assay type: binding; details: 10^-5 M
Excerpt: as §1

[4] = tested on: Calcium channel (Nifedipine); assay: NOVASCREEN receptor selectivity assay; assay type: binding; details: 10^-5 M
Excerpt: as §1

GABAB = assay: NOVASCREEN receptor selectivity assay; assay type: binding; details: 10^-5 M
Excerpt: as §1

NMDA = assay: NOVASCREEN receptor selectivity assay; assay type: binding; details: 10^-5 M
Excerpt: as §1

Serotonin 2 = assay: NOVASCREEN receptor selectivity assay; assay type: binding; details: 10^-5 M
Excerpt: as §1

NGF = assay: NOVASCREEN receptor selectivity assay; assay type: binding; details: 10^-5 M
Excerpt: as §1

EGF = assay: NOVASCREEN receptor selectivity assay; assay type: binding; details: 10^-5 M
Excerpt: as §1

Chloride channel = assay: NOVASCREEN receptor selectivity assay; assay type: binding; details: 10^-5 M
Excerpt: as §1

[5] = tested on: Adenylate Cyclase (Forskolin); assay: NOVASCREEN receptor selectivity assay; assay type: binding; details: 10^-5 M
Excerpt: as §1

Benzodiazephine = assay: NOVASCREEN receptor selectivity assay; assay type: binding; details: 10^-5 M
Excerpt: as §1

GABAA = assay: NOVASCREEN receptor selectivity assay; assay type: binding; details: 10^-5 M
Excerpt: as §1

CCK Central = assay: NOVASCREEN receptor selectivity assay; assay type: binding; details: 10^-5 M
Excerpt: as §1

Dopamine 2 = assay: NOVASCREEN receptor selectivity assay; assay type: binding; details: 10^-5 M
Excerpt: as §1

histamine H3 -receptor = assay: Reversal of the soporific effect of (R)α-methylhistamine in mice; assay type: in vivo, mouse
Method: The overall strategy to show central nervous system antagonist activity was to challenge effects of the agonist (R)α-methylhistamine. Therefore, the first objective was to establish a dose response curve for behavioral effects of (R)α-methylhistamine. Male albino CF-1 mice weighing 20-30 g were used. Saline or (R)α-methylhistamine in saline was injected i.p. in a volume ≤0.4 ml. […] Animals were scored for the presence (1) or absence (0) of the behavior and the results were reported as the accumulated score for a 30 minute period (maximum score=9).
To assess the effects of antagonists, they were administered with the (R)α-methylhistamine in saline.

[6] = tested on: H3 receptors in the cortex; assay: Blood-brain barrier penetration by ex vivo binding of [3H]-Nα-methylhistamine to cortex homogenate; assay type: in vivo, rat
Method: Blood-brain barrier penetration in rats was assessed by an ex vivo binding procedure. Young adult male Long-Evans rats were injected i.p. with saline or H3 antagonists in saline. At various times after injection animals were sacrificed, the cortex was removed, homogenized in 50 mM Na/K-phosphate buffer, pH 7.4, and the binding of 1 nM [^3 H]-N^α -methylhistamine was measured using 400 μg protein of the homogenate. Nonspecific binding was accounted for by the inclusion of excess thioperamide in some samples. Under these conditions, the binding was approximately 90% specific.

[7] = Toxicity observed in testing to date; assay type: in vivo; details: all testing to date, even at high doses
[8] = tested on: Calcium channel (w-Conotoxin); assay type: binding; details: 10^-5 M
[9] = tested on: adenosine, excitory or inhibitory amino acid, dopamine, serotonin, or a broad range of petidergic receptors, or to ion channel proteins, peptide factor or …; assay: NOVASCREEN receptor selectivity study, panel as a whole; assay type: binding; details: 10^-5 M
histamine H3 receptors = details: cited from earlier work
[10] = animal toxicity studies or clinical usage; cited from earlier work
[11] = dogs, 162 mg/kg/day, repeated dose; cited from earlier work
[12] = peptic ulcer patients; cited from earlier work

C[C@@H](N)Cc1c[nH]cn1 [(R)α-methylhistamine]
sleeping ([1]; i.p. 15 to 35 mg/kg, one hour after injection, also evident at 30 minutes): dose-dependent (range of 15 to 35 mg/kg) increase in sleeping

O=C(CCCCC1CCCCC1)N1CCC(c2c[nH]cn2)CC1 [Compound 1, 4-(1-CYCLOHEXYLVALEROYL-4-PIPERIDYL) 1H-IMIDAZOLE]
Initial Percent Inhibition (Average; N = 2) (Glycine (Inhibitory)): 17.4% | Initial Percent Inhibition (Average; N = 2) [2]: 0.9% | Initial Percent Inhibition (Average; N = 2) (Adenosine): -3.0% | Initial Percent Inhibition (Average; N = 2) (Kainate): 42.1% | Initial Percent Inhibition (Average; N = 2) (CCK Peripheral): 6.9% | Initial Percent Inhibition (Average; N = 2) (MK-801): -8.6% | Initial Percent Inhibition (Average; N = 2) (Potassium channel): 7.7% | Initial Percent Inhibition (Average; N = 2) (Angiotensin): 6.5% | Initial Percent Inhibition (Average; N = 2) [3]: -1.8% | Initial Percent Inhibition (Average; N = 2) (NPY): -8.7% | Initial Percent Inhibition (Average; N = 2) (Serotonin 1): -3.6% | Initial Percent Inhibition (Average; N = 2) (Bombesin): -5.5% | Initial Percent Inhibition (Average; N = 2) (Dopamine 1): 6.4% | Initial Percent Inhibition (Average; N = 2) (Neurotensin): -10.5% | Initial Percent Inhibition (Average; N = 2) (ANF (rat)): 0.1% | Initial Percent Inhibition (Average; N = 2) (Inositol Triphosphate): 9.2% | Initial Percent Inhibition (Average; N = 2) (Substance K): 29.2% | Initial Percent Inhibition (Average; N = 2) (PCP): 9.7% | Initial Percent Inhibition (Average; N = 2) (Glycine (excitatory)): 1.8% | Initial Percent Inhibition (Average; N = 2) (Substance P): 20.0% | Initial Percent Inhibition (Average; N = 2) (VIP): 17.1% | Initial Percent Inhibition (Average; N = 2) (Arg-Vasopressin V1): 10.1% | Initial Percent Inhibition (Average; N = 2) (Somatostatin): 4.1% | Initial Percent Inhibition (Average; N = 2) [4]: 8.1% | Initial Percent Inhibition (Average; N = 2) (GABAB): 0.0% | Initial Percent Inhibition (Average; N = 2) (NMDA): -4.5% | Initial Percent Inhibition (Average; N = 2) (Serotonin 2): 10.5% | Initial Percent Inhibition (Average; N = 2) (NGF): 17.1% | Initial Percent Inhibition (Average; N = 2) (EGF): 18.1% | Initial Percent Inhibition (Average; N = 2) (Chloride channel): -3.4% | Initial Percent Inhibition (Average; N = 2) [5]: 2.1% | Initial Percent Inhibition (Average; N = 2) (Benzodiazephine): 2.7% | Initial Percent Inhibition (Average; N = 2) (GABAA): 0.6% | Initial Percent Inhibition (Average; N = 2) (CCK Central): 18.6% | Initial Percent Inhibition (Average; N = 2) (Dopamine 2): 3.5% | inhibition of soporific effect of (R)α-methylhistamine (histamine H3 -receptor; agonist 25 mg/kg): inhibited the soporific effect | blood-brain barrier penetration ([6]; i.p. 50 and 70 mg/kg, one hour after injection): penetrates the blood-brain barrier | toxicity [7]: no toxicity | Initial Percent Inhibition (Average; N = 2) [8]: 1.9% | significant binding to other receptors [9]: no significant binding

O=C(CCCCC1CCCCC1)N1CCC(c2c[nH]cn2)CC1 [Compound 2016]
reversal of soporific effect of R(-)-alphamethylhistamine (histamine H3 -receptor; both drugs administered peripherally): reverses the soporific effect

S=C(NC1CCCCC1)N1CCC(c2cnc[nH]2)CC1 [Thioperamide]
behavior ([1]; thioperamide alone, without agonist): very active, exhibiting normal behaviors | inhibition of soporific effect of (R)α-methylhistamine (histamine H3 -receptor; agonist 30 mg/kg): able to inhibit the soporific effect | dose required to inhibit histamine release from the brain (histamine H3 receptors; rats): relatively high doses are required in vivo | blood-brain-barrier penetration (histamine H3 receptors; suggested by Ganellin et al.): poor penetration through the blood-brain-barrier | binding of [3H]-Nα-methylhistamine to cortical H3 receptors / blood-brain barrier penetration ([6]; i.p. 2, 5, and 10 mg/kg, 15 min after injection): decreased the binding of [^3 H]-Nα-methylhistamine to H3 receptors in the cortex

CN/C(=N/CCSCc1nc[nH]c1C)NC#N [cimetidine]
granulocytopenia or other side effects [10]: did not cause granulocytopenia, or any other side effects

C/N=C(\S)NCCSCc1[nH]cnc1C [metiamide]
agranulocytosis [11]: incidences of agranulocytosis | granulocytopenia [12]: low incidence of granulocytopenia
